This note sets out measurements from BindingDB's records for doi:10.7270/Q2862DWJ (Nmmlsc, 2009).

For this experiment, the target named is Isoform Bcl-X(L) of Bcl-2-like protein 1 (Bcl-xL) (Homo sapiens, UniProt Q07817). The experiment is described as follows: Bim-Bcl-XL interaction inhibitors, hit retest, confirmation, biochemical, dose response, multiplexed, HTS hits (AID 2084). The following applies: inactive by the depositor's call.

Molecules are shown by their SMILES. pEC50: −log10 of the molar value.

Isoform Bcl-X(L) of Bcl-2-like protein 1 (Bcl-xL), sequence (Q07817 whole entry G70A, canonical isoform): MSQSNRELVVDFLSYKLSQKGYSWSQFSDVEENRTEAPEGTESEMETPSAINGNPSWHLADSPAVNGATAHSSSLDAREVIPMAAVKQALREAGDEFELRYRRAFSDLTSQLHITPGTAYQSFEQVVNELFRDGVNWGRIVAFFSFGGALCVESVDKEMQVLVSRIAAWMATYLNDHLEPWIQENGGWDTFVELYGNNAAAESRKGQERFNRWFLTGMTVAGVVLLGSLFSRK

As a reminder, the pEC50 is −log10 of the EC50, conventionally taken in molar units. Read a low pEC50 as a large EC50. In turn, `O=c1[nH]c(O)c(Cc2ccc(-c3cc(Cl)ccc3[N+](=O)[O-])o2)c(=O)[nH]1` had a pEC50 of 4.58.

`CNC1CCC(Br)CC(C(=O)C=Cc2cccc(OC)c2OC)C1=O` (stereo not given) [4-bromo-2-[(E)-3-(2,3-dimethoxyphenyl)-1-oxoprop-2-enyl]-7-(methylamino)-1-cycloheptanone] showed a negative logarithm of the EC50 (pEC50) of 4.34.

Take `Cc1ccc(-c2nc3c(c(=O)[nH]c(=O)n3Cc3ccccc3)n2C)o1` [7-methyl-8-(5-methyl-2-furanyl)-3-(phenylmethyl)purine-2,6-dione]: the negative logarithm of the EC50 (pEC50) was 4.36.

Turning to `Clc1nc(NCc2cccnc2)nc(N2CCOCC2)n1` [MLS000121154], the negative-log EC50 (pEC50) is 4.82.

`COc1ccc(CCNC(=O)c2ccc3nc(-c4ccco4)c(-c4ccco4)nc3c2)cc1OC` [N-[2-(3,4-dimethoxyphenyl)ethyl]-2,3-di-2-furylquinoxaline-6-carboxamide]: the pEC50 is 4.74.
